In US20050197350A1, “Novel quinoline, tetrahydroquinazoline, and pyrimidine derivatives and methods of treatment related to the use thereof” (TAISHO PHARMACEUTICAL CO., LTD., priority 2003, published 2005):

These compounds were tested on MCH receptors (assay: MCH receptor activity class (method not given)). Details: MCH receptor activity class 1-3 (percent of control at 10^-7 M or IC50).

| Structure (SMILES) | class |
| --- | --- |
| CN(C)c1cc(N[C@H]2CC[C@@H](NC(=S)NC3CC4CCC3C4)CC2)nc2ccccc12 (relative stereo) [compound 2310] | 3 (Class 3 The value of percent of control at 10^−7 M was more than 60% or the value of IC50 was more than 200 nM.) |
| CN(C)c1ccnc(N[C@H]2CC[C@@H](NC(=S)NC3CC4CCC3C4)CC2)n1 (relative stereo) [compound 2355] | 3 (Class 3 The value of percent of control at 10^−7 M was more than 60% or the value of IC50 was more than 200 nM.) |
| CCOC(=O)[C@H](CC(C)C)NC(=O)NC[C@H]1CC[C@@H](Nc2cc(N(C)C)c3ccccc3n2)CC1 (relative stereo) [compound 2363] | 3 (Class 3 The value of percent of control at 10^−7 M was more than 60% or the value of IC50 was more than 200 nM.) |
| CCOC(=O)[C@H](CC(C)C)NC(=O)NC[C@H]1CC[C@@H](Nc2nccc(N(C)C)n2)CC1 (relative stereo) [compound 2409] | 3 (Class 3 The value of percent of control at 10^−7 M was more than 60% or the value of IC50 was more than 200 nM.) |
| CCOC(=O)[C@H](CC(C)C)NC(=O)NC[C@H]1CC[C@@H](Nc2nc3c(c(N(C)C)n2)CCCC3)CC1 (relative stereo) [compound 2455] | 2 (Class 2: The value of percent of control at 10^−7 M was from 40% to 60% or the value of IC′50 was from 50 nM to 200 nM.) |

Same assay, conditions: class by percent of control at 10^-7 M or IC50

| Structure (SMILES) | class |
| --- | --- |
| CCOC(=O)[C@H](Cc1ccccc1)NC(=O)N[C@H]1CC[C@@H](Nc2nccc(N(C)C)n2)CC1 (relative stereo) [compound 2250] | 3 (Class 3 The value of percent of control at 10^−7 M was more than 60% or the value of IC50 was more than 200 nM.) |

Same assay, conditions: class by percent of control at 10^−7 M or IC50

| Structure (SMILES) | class |
| --- | --- |
| Cc1cnc(N[C@H]2CC[C@@H](C(=O)NC(C)c3ccc(Br)cc3)CC2)nc1N(C)C (relative stereo) [compound 2779] | 1 (Class 1: The value of percent of control at 10^−7 M was less than 40% or the value of IC50 was less than 50 nM.) |
| Cc1cnc(N[C@H]2CC[C@@H](C(=O)N[C@@H](C)c3cccc4ccccc34)CC2)nc1N(C)C (relative stereo) [compound 2783, cis-4-{[4-(dimethylamino)-5-methylpyrimidin-2-yl]ainino}-N-[(1S)-1-(1-naphthyl)ethyl]cyclohexanecarboxamide] | 1 (Class 1: The value of percent of control at 10^−7 M was less than 40% or the value of IC50 was less than 50 nM.) |
| Cc1nc(N[C@H]2CC[C@@H](NC(=O)C(O)c3cc(F)cc(F)c3)CC2)nc(N(C)C)c1C (relative stereo) [compound 2829, 2-(3,5-difluorophenyl)-N-(cis-4-{[4-(dimethylamino)-5,6-dimethylpyrimidin-2-yl]amino}cyclohexyl)-2-hydroxyacetamide] | 2 (Class 2: The value of percent of control at 10^−7 M was from 40% to 60% or the value of IC′50 was from 50 nM to 200 nM.) |
| Cc1cnc(N[C@H]2CC[C@@H](NC(=O)C(C)c3ccc(Cl)cc3)CC2)nc1N(C)C (relative stereo) [compound 2874, 2-(4-chlorophenyl)-N-(cis-4-{[4-(dimethylamino)-5-methylpyrimidin-2-yl]amino}cyclohexyl)propanamide] | 1 (Class 1: The value of percent of control at 10^−7 M was less than 40% or the value of IC50 was less than 50 nM.) |
| Cc1cnc(N[C@H]2CC[C@@H](NC(=O)C(O)c3ccc(Cl)cc3)CC2)nc1N(C)C (relative stereo) [compound 2876, 2-(4-chlorophenyl)-N-(cis-4-{[4-(dimethylamino)-5-methylpyrimidin-2-yl]amino}cyclohexyl)-2-hydroxyacetamide] | 1 (Class 1: The value of percent of control at 10^−7 M was less than 40% or the value of IC50 was less than 50 nM.) |
| Cc1cnc(N[C@H]2CC[C@@H](NC(=O)C[S+]([O-])c3ccccc3C(F)(F)F)CC2)nc1N(C)C (relative stereo) [compound 2880] | 1 (Class 1: The value of percent of control at 10^−7 M was less than 40% or the value of IC50 was less than 50 nM.) |
